Assays:
P-P70S6K (T389) = experiment: Cell based AlphaLISA assay, inhibition of P-P70S6K (T389) in MDA-MB-468 cells; settings: Homo sapiens, 4 h, 0.017-1,000 nM, two to four hours at 37° C., AlphaLisa SureFire Ultra, read-out: pIC50 for Inhibition of mTORC1 and mTORC2 Substrate Phosphorylation, p-P70S6K-(T389) (converted)
Protocol: (§1) Cell Based AlphaLISA Assays For Determining IC50 For Inhibition of P-Akt (S473), P-4E-BP1 (T37/46), and P-P70S6K (T389) in MDA-MB-468 Cells
(§2) mTOR Kinase Cellular Assay
(§3) To measure functional activity of mTORC1 and mTORC2 in cells the phosphorylation of 4EBP1 (Thr37/46) and P70S6K (Thr389), and AKT1/2/3 (Ser473) was monitored using AlphaLisa SureFire Ultra Kits (Perkin Elmer). […] Incubations are terminated by removal of the assay buffer and addition of lysis buffer provided with the assay kit. Samples are processed according to the manufacturer's instructions. The Alpha signal from the respective phosphoproteins is measured in duplicate using a microplate reader (Envision, Perkin-Elmer or Spectramax M5, Molecular Devices). Inhibitor concentration response curves are analyzed using normalized IC50 regression curve fitting with control based normalization.

P-4E-BP1 (T37/46) = experiment: Cell based AlphaLISA assay, inhibition of P-4E-BP1 (T37/46) in MDA-MB-468 cells; settings: Homo sapiens, 4 h, 0.017-1,000 nM, two to four hours at 37° C., AlphaLisa SureFire Ultra, read-out: pIC50 for Inhibition of mTORC1 and mTORC2 Substrate Phosphorylation, p-4E-BP1-(T37/46) (converted)
Protocol: as §1, §2, §3

P-Akt (S473) = experiment: Cell based AlphaLISA assay, inhibition of P-Akt (S473) in MDA-MB-468 cells; settings: Homo sapiens, 4 h, 0.017-1,000 nM, two to four hours at 37° C., AlphaLisa SureFire Ultra, read-out: pIC50 for Inhibition of mTORC1 and mTORC2 Substrate Phosphorylation, p-AKT1/2/3-(S473) (converted)
Protocol: as §1, §2, §3

Structure (SMILES)	IC50 (P-P70S6K (T389)) [nM]	IC50 (P-4E-BP1 (T37/46)) [nM]	IC50 (P-Akt (S473)) [nM]
CO[C@H]1C[C@@H]2CC[C@@H](C)[C@@](O)(O2)C(=O)C(=O)N2CCCC[C@H]2C(=O)O[C@H]([C@H](C)C[C@@H]2CC[C@@H](O)[C@H](OC)C2)C[C@@H](O)[C@H](C)/C=C(\C)[C@@H](O)[C@@H](OC)C(=NOCC(=O)NCCOCCOCCOCCOCCOCCOCCC(=O)N2CCC(N3CCC(C(=O)N4CCc5cc(Cn6nc(-c7ccc8oc(N)nc8c7)c7c(N)ncnc76)ccc5C4)CC3)CC2)[C@H](C)C[C@H](C)/C=C/C=C/C=C/1C [Example 28]	1 to 10	3.16 to 31.6	31.6 to 1000
CO[C@H]1C[C@@H]2CC[C@@H](C)[C@@](O)(O2)C(=O)C(=O)N2CCCC[C@H]2C(=O)O[C@H]([C@H](C)C[C@@H]2CC[C@@H](O)[C@H](OC)C2)C[C@@H](O)[C@H](C)/C=C(\C)[C@@H](O)[C@@H](OC)C(=NOCC(=O)NCc2cnc(N3CCN(C(=O)CCCN4CCN(c5ncc(C(=O)N6CCC(n7nc(-c8ccc9oc(N)nc9c8)c8c(N)ncnc87)CC6)cn5)CC4)CC3)nc2)[C@H](C)C[C@H](C)/C=C/C=C/C=C/1C [Example 66]	1 to 10	> 1000	> 1000
CO[C@H]1C[C@@H]2CC[C@@H](C)[C@@](O)(O2)C(=O)C(=O)N2CCCC[C@H]2C(=O)O[C@H]([C@H](C)C[C@@H]2CC[C@@H](O)[C@H](OC)C2)C[C@@H](OC)[C@H](C)/C=C(\C)[C@@H](O)[C@@H](OC)C(=NOCC(=O)NCCOCCOCCOCCOCCOCCOCCOCCOCCC(=O)NCCCCn2nc(-c3cnc4[nH]ccc4c3)c3c(N)ncnc32)[C@H](C)C[C@H](C)/C=C/C=C/C=C/1C [Example 8]	< 1	3.16 to 31.6	> 1000
CO[C@H]1C[C@@H]2CC[C@@H](C)[C@@](O)(O2)C(=O)C(=O)N2CCCC[C@H]2C(=O)O[C@H]([C@H](C)C[C@@H]2CC[C@@H](O)[C@H](OC)C2)C[C@@H](O)[C@H](C)/C=C(\C)[C@@H](O)[C@@H](OC)C(=NOCC(=O)N2CCc3nc(N4CCN(c5ncc(C(=O)NCCOCCOCCOCCC(=O)N6CCc7cc(Cn8nc(-c9cnc%10[nH]ccc%10c9)c9c(N)ncnc98)ccc7C6)cn5)CC4)ncc3C2)[C@H](C)C[C@H](C)/C=C/C=C/C=C/1C [Example 19]	1 to 10	3.16 to 31.6	> 1000
CO[C@H]1C[C@@H]2CC[C@@H](C)[C@@](O)(O2)C(=O)C(=O)N2CCCC[C@H]2C(=O)O[C@H]([C@H](C)C[C@@H]2CC[C@@H](O)[C@H](OC)C2)C[C@@H](O)[C@H](C)/C=C(\C)[C@@H](O)[C@@H](OC)C(=NOC(C)(C)C(=O)NCCOCCOCCOCCOCCOCCOCCC(=O)N2CCc3cc(Cn4nc(-c5ccc6oc(N)nc6c5)c5c(N)ncnc54)ccc3C2)[C@H](C)C[C@H](C)/C=C/C=C/C=C/1C [Example 48]	10 to 1000	3.16 to 31.6	> 1000
CO[C@H]1C[C@@H]2CC[C@@H](C)[C@@](O)(O2)C(=O)C(=O)N2CCCC[C@H]2C(=O)O[C@H]([C@H](C)C[C@@H]2CC[C@@H](O)[C@H](OC)C2)C[C@@H](O)[C@H](C)/C=C(\C)[C@@H](O)[C@@H](OC)C(=NOCC(=O)N2CCc3nc(N4CCN(c5ncc(C(=O)NCCOCCC(=O)N6CCc7cc(Cn8nc(-c9ccc%10oc(N)nc%10c9)c9c(N)ncnc98)ccc7C6)cn5)CC4)ncc3C2)[C@H](C)CC(C)/C=C/C=C/C=C/1C (stereo partly drawn) [Example 18]	1 to 10	3.16 to 31.6	> 1000
CO[C@H]1C[C@@H]2CC[C@@H](C)[C@@](O)(O2)C(=O)C(=O)N2CCCC[C@H]2C(=O)O[C@H]([C@H](C)C[C@@H]2CC[C@@H](O)[C@H](OC)C2)C[C@@H](O)[C@H](C)/C=C(\C)[C@@H](O)[C@@H](OC)C(=NOCC(=O)NCCOCCC(=O)NCc2cnc(N3CCN(C(=O)CCOCCN4CCN(c5ncc(C(=O)NCCCCn6nc(-c7ccc8oc(N)nc8c7)c7c(N)ncnc76)cn5)CC4)CC3)nc2)[C@H](C)C[C@H](C)/C=C/C=C/C=C/1C [Example 43]	< 1	3.16 to 31.6	31.6 to 1000
CO[C@H]1C[C@@H]2CC[C@@H](C)[C@@](O)(O2)C(=O)C(=O)N2CCCC[C@H]2C(=O)O[C@H]([C@H](C)C[C@@H]2CC[C@@H](O)[C@H](OC)C2)C[C@@H](O)[C@H](C)/C=C(\C)[C@@H](O)[C@@H](OC)C(=NOCC(=O)NCCOCCOCCOCCOCCOCCOCCC(=O)NC2CCN(CC(=O)N3CCc4cc(Cn5nc(-c6ccc7oc(N)nc7c6)c6c(N)ncnc65)ccc4C3)CC2)[C@H](C)C[C@H](C)/C=C/C=C/C=C/1C [Example 69]	1 to 10	3.16 to 31.6	> 1000
CO[C@H]1C[C@@H]2CC[C@@H](C)[C@@](O)(O2)C(=O)C(=O)N2CCCC[C@H]2C(=O)O[C@H]([C@H](C)C[C@@H]2CC[C@@H](O)[C@H](OC)C2)C[C@@H](O)[C@H](C)/C=C(\C)[C@@H](O)[C@@H](OC)C(=NOCC(=O)NCc2cnc(N3CCN(C(=O)CCOCCN4CCN(c5ncc(C(=O)NCCOCCC(=O)N6CCc7cc(Cn8nc(-c9ccc%10oc(N)nc%10c9)c9c(N)ncnc98)ccc7C6)cn5)CC4)CC3)nc2)[C@H](C)C[C@H](C)/C=C/C=C/C=C/1C [Example 39]	1 to 10	3.16 to 31.6	> 1000
CO[C@H]1C[C@@H]2CC[C@@H](C)[C@@](O)(O2)C(=O)C(=O)N2CCCC[C@H]2C(=O)O[C@H]([C@H](C)C[C@@H]2CC[C@@H](O)[C@H](OC)C2)C[C@@H](OC)[C@H](C)/C=C(\C)[C@@H](O)[C@@H](OC)C(=NOCC(=O)NCCOCCOCCOCCOCCOCCOCCOCCOCCC(=O)N2CCc3cc(Cn4nc(-c5cnc6[nH]ccc6c5)c5c(N)ncnc54)ccc3C2)[C@H](C)C[C@H](C)/C=C/C=C/C=C/1C [Example 11]	1 to 10	3.16 to 31.6	> 1000
CO[C@H]1C[C@@H]2CC[C@@H](C)[C@@](O)(O2)C(=O)C(=O)N2CCCC[C@H]2C(=O)O[C@H]([C@H](C)C[C@@H]2CC[C@@H](O)[C@H](OC)C2)C[C@@H](O)[C@H](C)/C=C(\C)[C@@H](O)[C@@H](OC)C(=NOc2cccc(C(=O)NCc3cnc(N4CCN(C(=O)CCOCCN5CCN(c6ncc(C(=O)N7CCc8cc(Cn9nc(-c%10ccc%11oc(N)nc%11c%10)c%10c(N)ncnc%109)ccc8C7)cn6)CC5)CC4)nc3)c2)[C@H](C)C[C@H](C)/C=C/C=C/C=C/1C [Example 35]	10 to 1000	> 1000	> 1000
CO[C@H]1C[C@@H]2CC[C@@H](C)[C@@](O)(O2)C(=O)C(=O)N2CCCC[C@H]2C(=O)O[C@H]([C@H](C)C[C@@H]2CC[C@@H](O)[C@H](OC)C2)C[C@@H](O)[C@H](C)/C=C(\C)[C@@H](O)[C@@H](OC)C(=NOCC(=O)NCCOCCOCCOCCOCCC(=O)N2CCN(c3ncc(C(=O)NCCCCn4nc(-c5ccc6oc(N)nc6c5)c5c(N)ncnc54)cn3)CC2)[C@H](C)C[C@H](C)/C=C/C=C/C=C/1C [Example 27]	1 to 10	3.16 to 31.6	31.6 to 1000
CO[C@H]1C[C@@H]2CC[C@@H](C)[C@@](O)(O2)C(=O)C(=O)N2CCCC[C@H]2C(=O)O[C@H]([C@H](C)C[C@@H]2CC[C@@H](O)[C@H](OC)C2)CC[C@H](C)/C=C(\C)[C@@H](O)[C@@H](OC)C(=NOCC(=O)NCCOCCOCCOCCOCCOCCOCCOCCOCCC(=O)N2CCc3cc(Cn4nc(-c5ccc6oc(N)nc6c5)c5c(N)ncnc54)ccc3C2)[C@H](C)C[C@H](C)/C=C/C=C/C=C/1C [Example 67]	< 1	< 3.16	31.6 to 1000
CO[C@H]1C[C@@H]2CC[C@@H](C)[C@@](O)(O2)C(=O)C(=O)N2CCCC[C@H]2C(=O)O[C@H]([C@H](C)C[C@@H]2CC[C@@H](O)[C@H](OC)C2)C[C@@H](O)[C@H](C)/C=C(\C)[C@@H](O)[C@@H](OC)C(=NOCC(=O)NCc2cnc(N3CCN(CCOCCN4CCN(c5ncc(C(=O)N6CCc7cc(Cn8nc(-c9ccc%10oc(N)nc%10c9)c9c(N)ncnc98)ccc7C6)cn5)CC4)CC3)nc2)[C@H](C)C[C@H](C)/C=C/C=C/C=C/1C [Example 59]	< 1	3.16 to 31.6	> 1000
CO[C@H]1C[C@@H]2CC[C@@H](C)[C@@](O)(O2)C(=O)C(=O)N2CCCC[C@H]2C(=O)O[C@H]([C@H](C)C[C@@H]2CC[C@@H](O)[C@H](OC)C2)C[C@@H](O)[C@H](C)/C=C(\C)[C@@H](O)[C@@H](OC)C(=NOCC(=O)NCc2cnc(N3CCN(C(=O)CCOCCN4CCN(c5ncc(C(=O)N6CCc7cc(Cn8nc(-c9ccc%10oc(N)nc%10c9)c9c(N)ncnc98)ccc7C6)cn5)CC4)[C@@H](C(=O)O)C3)nc2)[C@H](C)C[C@H](C)/C=C/C=C/C=C/1C [Example 55]	< 1	3.16 to 31.6	> 1000
